Results taken from patent US6472348B1, “Pyridone derivatives and herbicides” (Kumiai Chemical Industry Co., Ltd., priority 1996, dated 2002).

Key:
[1] = system: China jute (Ab); experiment: Test Example 9: crop plant selectivity by upland field foliage treatment (wheat), herbicidal effects; assay type: in vivo; design: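 grade of growth control; 5 = at least 90%; 4 = 70 to 90%; 3 = 50 to 70%; 2 = 30 to 50%; 1 = 10 to 30%; 0 = under 10%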; details: dose 1.6 g ai/10a, 14th day after treatment
Summary of the method: (§1)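 Seeds of wheat, pale smartweed, slender amaranth, common lambsquarters and China jute are sown in sand and grown 2 weeks under glass. Foliage is then treated, culture resumes in the greenhouse, and damage is graded on the 14th day.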

[2] = system: common lambsquarters (Ch); experiment: as above; assay type: in vivo; design: scale not given here; details: dose 1.6 g ai/10a, 14th day after treatment
Summary of the method: as §1

[3] = system: pale smartweed (Po); experiment: as above; assay type: in vivo; design: scale not given here; details: dose 1.6 g ai/10a, 14th day after treatment
Summary of the method: as §1

[4] = system: slender amaranth (Am); experiment: as above; assay type: in vivo; design: scale not given here; details: dose 1.6 g ai/10a, 14th day after treatment
Summary of the method: as §1

[5] = system: corn (Ze); experiment: Test Example 11: crop plant selectivity by upland field foliage treatment (corn), phytotoxicity; details: upland field foliage treatment, dose 1.6 g ai/10a, 14th day after treatment
Method: (§2) (Test on Crop Plant Selectivity by Upland Field Foliage Treatment)
(§3) In a plastic pot (surface area: 600 cm^2) filled with sand, corn (Ze), pale smartweed (Po), slender amaranth (Am), common lambsquarters (Ch) and China jute (Ab) were sown and cultured in a green house for 2 weeks. […] The plants were then cultured in a green house, and the evaluation of the herbicidal effects and phytotoxicity was conducted on the 14th day after the treatment in accordance with the standards as identified in Table 47.

[6] = system: China jute (Ab); experiment: Test Example 11: crop plant selectivity by upland field foliage treatment (corn), herbicidal effects; assay type: in vivo; design: scale not given here; details: upland field foliage treatment (corn test), dose 1.6 g ai/10a, 14th day after treatment
Method: as §2, §3

[7] = system: common lambsquarters (Ch); experiment: as above; assay type: in vivo; design: scale not given here; details: upland field foliage treatment (corn test), dose 1.6 g ai/10a, 14th day after treatment
Method: as §2, §3

[8] = system: pale smartweed (Po); experiment: as above; assay type: in vivo; design: scale not given here; details: upland field foliage treatment (corn test), dose 1.6 g ai/10a, 14th day after treatment
Method: as §2, §3

[9] = system: slender amaranth (Am); experiment: as above; assay type: in vivo; design: scale not given here; details: upland field foliage treatment (corn test), dose 1.6 g ai/10a, 14th day after treatment
Method: as §2, §3

[10] = system: wheat (Tr); experiment: Test Example 9: crop plant selectivity by upland field foliage treatment (wheat), phytotoxicity; details: dose 1.6 g ai/10a, 14th day after treatment;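 also: grade of crop injury; 5 = at least 90%; 4 = 70 to 90%; 3 = 50 to 70%; 2 = 30 to 50%; 1 = 10 to 30%; 0 = under 10%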
Summary of the method: as §1

[11] = system: common lambsquarters (Ch); experiment: Test Example 3: herbicidal effects by upland field foliage treatment; assay type: in vivo; design: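 grade of growth control; 5 = at least 90%; 4 = 70 to 90%; 3 = 50 to 70%; 2 = 30 to 50%; 1 = 10 to 30%; 0 = under 10%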; details: 100 g active ingredient per 10 ares, evaluated 14th day after treatment
Summary of the method: (§4)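 Scores reflect herbicidal effect graded by standards on the 14th day after foliage treatment of weeds grown 2 weeks in a greenhouse.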

[12] = system: rice flatsedge (Ci); experiment: as above; assay type: in vivo; design: scale not given here; details: 100 g active ingredient per 10 ares, evaluated 14th day after treatment
Summary of the method: as §4

[13] = system: pale smartweed (Po); experiment: as above; assay type: in vivo; design: scale not given here; details: 100 g active ingredient per 10 ares, evaluated 14th day after treatment
Summary of the method: as §4

[14] = system: barnyardgrass (Ec); experiment: as above; assay type: in vivo; design: scale not given here; details: 100 g active ingredient per 10 ares, evaluated 14th day after treatment
Summary of the method: as §4

[15] = system: Diaitaria ciliaris (Di); experiment: as above; assay type: in vivo; design: scale not given here; details: 100 g active ingredient per 10 ares, evaluated 14th day after treatment
Summary of the method: as §4

[16] = system: slender amaranth (Am); experiment: as above; assay type: in vivo; design: scale not given here; details: 100 g active ingredient per 10 ares, evaluated 14th day after treatment
Summary of the method: as §4

[17] = system: Digitaria ciliaris (Di); experiment: Test Example 2: herbicidal effects by upland field soil treatment; assay type: in vivo; details: 100 g of the active ingredient per 10 ares, evaluated on the 21st day after application;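 also: grade of growth control; 5 = at least 90%; 4 = 70 to 90%; 3 = 50 to 70%; 2 = 30 to 50%; 1 = 10 to 30%; 0 = under 10%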
Excerpt: (§5) (Test on Herbicidal Effects by Upland Field Soil Treatment)

[18] = system: common lambsquarters (Ch); experiment: as above; assay type: in vivo; details: 100 g of the active ingredient per 10 ares, evaluated on the 21st day after application
Excerpt: as §5

[19] = system: rice flatsedge (Ci); experiment: as above; assay type: in vivo; details: 100 g of the active ingredient per 10 ares, evaluated on the 21st day after application
Excerpt: as §5

[20] = system: pale smartweed (Po); experiment: as above; assay type: in vivo; details: 100 g of the active ingredient per 10 ares, evaluated on the 21st day after application
Excerpt: as §5

[21] = system: barnyardgrass (Ec); experiment: as above; assay type: in vivo; details: 100 g of the active ingredient per 10 ares, evaluated on the 21st day after application
Excerpt: as §5

[22] = system: slender amaranth (Am); experiment: as above; assay type: in vivo; details: 100 g of the active ingredient per 10 ares, evaluated on the 21st day after application
Excerpt: as §5

[23] = system: monochoria (Mo); experiment: Test Example 1: herbicidal effects by paddy field soil treatment; assay type: in vivo; details: 100 g of the active ingredient per 10 ares, 21st day after the application, index 0-5 of Table 47;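 also: grade of growth control; 5 = at least 90%; 4 = 70 to 90%; 3 = 50 to 70%; 2 = 30 to 50%; 1 = 10 to 30%; 0 = under 10%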
Summary of the method: (§6)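 Flooded paddy-soil pots (3 cm water) sown after puddling/leveling; treatment 100 g a.i./10 ares; greenhouse culture; herbicidal effect rated visually on a scoring scale at 21 d post-application.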

[24] = system: barnyardgrass (Ec); experiment: as above; assay type: in vivo; details: 100 g of the active ingredient per 10 ares, 21st day after the application, index 0-5 of Table 47
Summary of the method: as §6

[25] = system: bulrush (Sc); experiment: as above; assay type: in vivo; details: 100 g of the active ingredient per 10 ares, 21st day after the application, index 0-5 of Table 47;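 also: grade of growth control; 5 = at least 90%; 4 = 70 to 90%; 3 = 50 to 70%; 2 = 30 to 50%; 1 = 10 to 30%; 0 = under 10%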
Summary of the method: as §6

C#CC(C)Oc1cc(-c2ccc(C(F)(F)F)n(C)c2=O)c(Cl)cc1Cl (stereo not drawn) [1-31]
2: Phytotoxicity Ze [5] | Phytotoxicity Tr [10]
5: Herbicidal effects Ab [1] | Herbicidal effects Ch [2] | Herbicidal effects Po [3] | Herbicidal effects Am [4] | Herbicidal effects Ab [6] | Herbicidal effects Ch [7] | Herbicidal effects Po [8] | Herbicidal effects Am [9]

Cn1c(C(F)(F)F)ccc(-c2cc3c(cc2F)OCC(=O)N3CC#N)c1=O [Compound 2-17]
2: Phytotoxicity Ze [5]
5: Herbicidal effects Ch [11] | Herbicidal effects Ci [12] | Herbicidal effects Po [13] | Herbicidal effects Ec [14] | Herbicidal effects Di [15] | Herbicidal effects Am [16] | Herbicidal effects Di [17] | Herbicidal effects Ch [18] | Herbicidal effects Ci [19] | Herbicidal effects Po [20] | Herbicidal effects Ec [21] | Herbicidal effects Am [22] | Herbicidal effects Ab [6] | Herbicidal effects Ch [7] | Herbicidal effects Po [8] | Herbicidal effects Am [9] | Herbicidal effects Mo [23] | Herbicidal effects Ec [24] | Herbicidal effects Sc [25]
